Key:
[1] = test system: SMN2 minigene (full length SMN2 minigene mRNA containing SMN2 exon 7); assay: SMN2 minigene mRNA splicing RT-qPCR assay in cultured cells; type: cell-based, human; settings: Homo sapiens, HEK293-H; HEK293H cells stably transfected with SMN2-A minigene; 24 hours; 7-point concentration curve; 1.5-fold relative to vehicle-treated cells; read-out: EC1.5x for production of full length SMN2 mRNA
How it was run: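 HEK293H cells stably carrying the SMN2-A minigene treated 24 h at 37° C with compound (DMSO, 200× stock), then lysed. Multiplex RT-qPCR (SMN primers 0.4 μM final; 40 cycles) measures full-length exon 7-containing minigene mRNA, normalized to GAPDH and to vehicle; EC1.5x derived and binned by stars.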

Smn protein = Smn protein assay in cultured cells (SMN HTRF); type: cell-based, human; settings: 48 hours; for maximum fold (Fold) increase of Smn protein: SMA patient fibroblast cells, 7-point concentration data, fold increase relative to vehicle control (SMN HTRF); for EC1.5x (concentration giving 1.5-fold Smn protein increase): SMA Type 1 patient fibroblast cells (GM03813), 7-point concentration curve, SMN HTRF, concentration producing 1.5 times Smn protein vs DMSO vehicle control, read-out: EC1.5x for Smn protein expression
How it was run: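 Lysates in RIPA with protease inhibitors are incubated overnight at room temperature with HTRF anti-SMN antibodies. EC1.5x is derived from fold increase in ΔF over vehicle.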

Row | melting point [°C] | SMILES | EC (1.5-fold) [1] [µM] | maximum fold (Fold) increase of Smn protein (Smn protein) | EC1.5x (concentration giving 1.5-fold Smn protein increase) (Smn protein) [nM]
1 | 202 to 205 | CCN1CCN(c2ccc3cc(-c4cn5ccsc5n4)c(=O)oc3c2)CC1 [Compound 201, 7-(4-ethylpiperazin-1-yl)-3-(imidazo[2,1-b][1,3]thiazol-6-yl)-2H-chromen-2-one] | 0.3 to 1 | ** (fold increase between >1.2 and ≤1.35) | –
2 | 239 to 242 | Cc1cn2cc(-c3cc4ccc(N5CC[C@@H](N(C)C)C5)cc4oc3=O)nc2c(C)n1 [Compound 690, 7-[(3R)-3-(dimethylamino)pyrrolidin-1-yl]-3-(6,8-dimethylimidazo[1,2-a]pyrazin-2-yl)-2H-chromen-2-one] | 0.1 to 0.3 | **** (fold increase between >1.5 and ≤1.65) | 300 to 1000
3 | 222 to 225 | Cc1cn2cc(-c3cc4ccc(N5CCC(NC6CCC6)CC5)cc4oc3=O)nc2c(C)n1 [Compound 924, 7-[4-(cyclobutylamino)piperidin-1-yl]-3-(6,8-dimethylimidazo[1,2-a]pyrazin-2-yl)-2H-chromen-2-one] | < 0.1 | **** (fold increase between >1.5 and ≤1.65) | < 300
4 | 181 to 184 | Cc1cn2cc(-c3cc4ccc(CCCNC(C)CO)cc4oc3=O)nc2c(C)n1 (stereo not drawn) [Compound 881, 3-(6,8-dimethylimidazo[1,2-a]pyrazin-2-yl)-7-{3-[(1-hydroxypropan-2-yl)amino]propyl}-2H-chromen-2-one] | < 0.1 | **** (fold increase between >1.5 and ≤1.65) | < 300
5 | 197 to 201 | CNCCCc1ccc2cc(-c3cn4cc(C)nc(C)c4n3)c(=O)oc2c1 [Compound 912, 3-(6,8-dimethylimidazo[1,2-a]pyrazin-2-yl)-7-[3-(methylamino)propyl]-2H-chromen-2-one] | < 0.1 | **** (fold increase between >1.5 and ≤1.65) | < 300
6 | 320 to 325 | Cl.O=c1oc2cc(N3CCNCC3)ccc2cc1-c1nc2cc(F)ccc2o1 [Compound 19, 3-(5-fluoro-1,3-benzoxazol-2-yl)-7-(piperazin-1-yl)-2H-chromen-2-one hydrochloride] | 1 to 3 | * (maximum fold increase of ≤1.2) | –
7 | 103 to 105 | COc1ccc(-c2cc3ccc(N4CCN[C@@H](C)C4)cc3oc2=O)c(OC)c1 [Compound 467, 3-(2,4-dimethoxyphenyl)-7-[(3S)-3-methylpiperazin-1-yl]-2H-chromen-2-one] | 3 to 30 | * (maximum fold increase of ≤1.2) | –
8 | 271 to 281 | Cc1cc(Cl)cn2cc(-c3cc4ccc(N5C[C@@H](C)N[C@@H](C)C5)cc4oc3=O)nc12 [Compound 265, 3-(6-chloro-8-methylimidazo[1,2-a]pyridin-2-yl)-7-[(3R,5S)-3,5-dimethylpiperazin-1-yl]-2H-chromen-2-one] | 1 to 3 | * (maximum fold increase of ≤1.2) | –
9 | 249 to 250 | Cc1cn2cc(-c3cc4ccc(N5C[C@@H](C)N[C@@H](C)C5)cc4oc3=O)nc2cn1 [Compound 476, 7-[(3R,5S)-3,5-dimethylpiperazin-1-yl]-3-(6-methylimidazo[1,2-a]pyrazin-2-yl)-2H-chromen-2-one] | < 0.1 | ***** (fold increase >1.65) | < 300
10 | 263 to 272 | Cc1cccc2nc(-c3cc4ccc(N5CCN(C)CC5)cc4oc3=O)cn12 [Compound 135, 3-(5-methylimidazo[1,2-a]pyridin-2-yl)-7-(4-methylpiperazin-1-yl)-2H-chromen-2-one] | 0.3 to 1 | ** (fold increase between >1.2 and ≤1.35) | –
11 | 192 to 197 | Cc1cn2cc(-c3cc4ccc(CCNC(C)C)cc4oc3=O)nc2c(C)n1 [Compound 865, 3-(6,8-dimethylimidazo[1,2-a]pyrazin-2-yl)-7-[2-(propan-2-ylamino)ethyl]-2H-chromen-2-one] | < 0.1 | **** (fold increase between >1.5 and ≤1.65) | 1000 to 3000
12 | 182 to 185 | CCN1CCN(c2ccc3cc(-c4cc5c(C)nc(C)cn5c4)c(=O)oc3c2)CC1 [Compound 674, 3-(1,3-dimethylpyrrolo[1,2-a]pyrazin-7-yl)-7-(4-ethylpiperazin-1-yl)-2H-chromen-2-one] | < 0.1 | ***** (fold increase >1.65) | < 300
13 | 234 to 244 | Cc1ccn2cc(-c3cc4ccc(N5CCN[C@@H](C)C5)cc4oc3=O)nc2c1 [Compound 213, 3-(7-methylimidazo[1,2-a]pyridin-2-yl)-7-[(3S)-3-methylpiperazin-1-yl]-2H-chromen-2-one] | 0.1 to 0.3 | *** (fold increase between >1.35 and ≤1.5) | –
14 | 287 to 297 | Cc1cc(F)c2nc(-c3cc4ccc(N5CCN6CCC5CC6)cc4oc3=O)cn2c1 [Compound 561, 7-(1,4-diazabicyclo[3.2.2]non-4-yl)-3-(8-fluoro-6-methylimidazo[1,2-a]pyridin-2-yl)-2H-chromen-2-one] | 0.3 to 1 | **** (fold increase between >1.5 and ≤1.65) | < 300
15 | 300 to 302 | CN1CCCN(c2cc(F)c3cc(-c4cn5cccnc5n4)c(=O)oc3c2)CC1 [Compound 335, 5-fluoro-3-(imidazo[1,2-a]pyrimidin-2-yl)-7-(4-methyl-1,4-diazepan-1-yl)-2H-chromen-2-one] | 0.1 to 0.3 | *** (fold increase between >1.35 and ≤1.5) | 1000 to 3000
16 | 221 to 222 | Cc1nccn2cc(-c3cc4ccc(N5CCN(C)CC5)cc4oc3=O)nc12 [Compound 551, 3-(8-methylimidazo[1,2-a]pyrazin-2-yl)-7-(4-methylpiperazin-1-yl)-2H-chromen-2-one] | 0.3 to 1 | *** (fold increase between >1.35 and ≤1.5) | < 300
17 | 178 to 180 | O=c1oc2cc(N3CCCNCC3)ccc2cc1-c1cc2ccccn2n1 [Compound 192, 7-(1,4-diazepan-1-yl)-3-(pyrazolo[1,5-a]pyridin-2-yl)-2H-chromen-2-one] | 0.3 to 1 | ** (fold increase between >1.2 and ≤1.35) | –
18 | 149 to 152 | Cc1cn2cc(-c3cc4ccc(CCCNCc5ccsc5)cc4oc3=O)nc2c(C)n1 [Compound 934, 3-(6,8-dimethylimidazo[1,2-a]pyrazin-2-yl)-7-{3-[(thiophen-3-ylmethyl)amino]propyl}-2H-chromen-2-one] | < 0.1 | ** (fold increase between >1.2 and ≤1.35) | –
19 | 240 to 242 | Cc1cn2cc(-c3cc4ccc(N5CCN(C(C)C)CC5)cc4oc3=O)nc2c(C)n1 [Compound 792, 3-(6,8-dimethylimidazo[1,2-a]pyrazin-2-yl)-7-[4-(propan-2-yl)piperazin-1-yl]-2H-chromen-2-one] | < 0.1 | **** (fold increase between >1.5 and ≤1.65) | < 300
20 | 185 to 187 | CN1CCN(c2ccc3cc(-c4cn(C)c5ccccc45)c(=O)oc3c2)CC1 [Compound 259, 3-(1-methyl-1H-indol-3-yl)-7-(4-methylpiperazin-1-yl)-2H-chromen-2-one] | 1 to 3 | * (maximum fold increase of ≤1.2) | –
21 | 179 to 184 | Cc1cn2cc(-c3cc4ccc(N5CCCN(C)CC5)cc4oc3=O)nc2s1 [Compound 153, 7-(4-methyl-1,4-diazepan-1-yl)-3-(2-methylimidazo[2,1-b][1,3]thiazol-6-yl)-2H-chromen-2-one] | 1 to 3 | *** (fold increase between >1.35 and ≤1.5) | –
22 | 290 to 300 | Cc1cc([N+](=O)[O-])c2nc(-c3cc4ccc(N5C[C@@H](C)N[C@@H](C)C5)cc4oc3=O)cn2c1 [Compound 701, 7-[(3R,5S)-3,5-dimethylpiperazin-1-yl]-3-(6-methyl-8-nitroimidazo[1,2-a]pyridin-2-yl)-2H-chromen-2-one] | 1 to 3 | ** (fold increase between >1.2 and ≤1.35) | –
23 | 170 to 173 | Cc1cn2cc(-c3cc4ccc(N5C[C@@H](C)N[C@@H](C)C5)cc4oc3=O)cc2c(C)n1 [Compound 645, 7-[(3R,5S)-3,5-dimethylpiperazin-1-yl]-3-(1,3-dimethylpyrrolo[1,2-a]pyrazin-7-yl)-2H-chromen-2-one] | < 0.1 | ***** (fold increase >1.65) | < 300

From patent publication USRE47689E1, “Compounds for treating spinal muscular atrophy” (PTC Therapeutics, Inc., priority 2011, dated 2019)
